Laboratory results taken from patent publication US9573964B2, “Oxygen linked pyrimidine derivatives” (CTI BIOPHARMA CORP., priority 2005, dated 2017).

Experiments:
[1] = system: HL60 (acute myeloid leukemia cell line); assay: Cell-based proliferation assay for GI50, HL60; conditions: Homo sapiens, HL-60; HL60 cells, 96 h treatment
Method: (§1) Human cancer cell lines HL60 (acute myeloid leukemia cell line), Colo205 (colon adenocarcinoma cell line), HEL92.1.7 (erythroleukemia cell line) and MV4-11 (acute myeloid leukemia cell line) were obtained from ATCC. They were cultivated in the media according to the ATCC work instructions. Colo205 cells were seeded in 96-wells plate at 5000 cells per well. HEL92.1.7 and MV4-11 cells were seeded at 6000 cells per well while HL60 cells were seeded at 8000 cells per well in 96 well plate. The plates were incubated at 37° C., 5% CO2, for 24 h. Cells were treated with compounds at various concentrations for 96 h. Cell growth was then monitored using Celltiter96 Aqueous One Solution Cell Proliferation Assay from Promega (Madison Wis.). Dose response curves were plotted to determine GI50 values for the compounds using XL-fit (ID Business Solution, Emeryville, Calif.).

CDK2/CyclinA = biological target: T1, CDK2/CyclinA (Homo sapiens, UniProt P24941); assay: In vitro kinase activity assay (PKLight), CDK2/Cyclin A; assay type: biochemical; conditions: 0.5 μM ATP
T1 construct: purchased Invitrogen PV3267
Method: (§2) The recombinant enzymes (CDK2/CyclinA, FLT3, JAK2 and JAK2 V617F) were purchased from Invitrogen (Cat #PV3267, 3182, 4210 and 4347 respectively). All assays were carried out in 384-well white microtiter plates using the PKLight assay system from Cambrex (East Rutherford, N.J.). This assay platform is essentially a luminometric assay for the detection of ATP in the reaction using a luciferase-coupled reaction. For CDK2/Cyclin A assay, the reaction mixture consisted of the following components in 25 μL assay buffer (50 mM Hepes pH 7.5, 10 mM MgCl2, 5 mM MnCl2, 5 mM BGP, 1 mM DTT, 0.1 mM sodium orthovanadate), 1.4 μg/mL of CDK2/Cyclin A complex, 0.5 μM of RbING substrate (Invitrogen, Cat #PV2939) and 0.5 μM of ATP. The compounds were tested at 8 concentrations prepared from 4-fold serial dilution starting at 10 μM. The reaction was incubated at room temperature for 2 hr. 13 μL of PKLight ATP detection reagent was added and the reaction was incubated for 10 min. Luminescence signals were detected on a multi-label plate reader (Victor^2 V 1420, Perkin-Elmer). The other kinase assays were identical except for the following differences in reagents. For FLT3 assays, the reaction contained 2.0 μg/mL FLT3 enzyme, 5 μM of poly(Glu,Tyr) substrate (Sigma, Cat #P0275) and 4 μM of ATP. For JAK2 assays, the reaction contained 0.6 μg/mL of JAK2 enzyme, 2 μM of poly(Glu,Ala,Tyr) substrate (Sigma, Cat #P3899) and 0.2 μM of ATP. For JAK2 V617F mutant assays, the reaction contained 8.0 μg/mL of JAK2 mutant enzyme, 2 μM of poly(Glu,Ala,Tyr) substrate (Sigma, Cat #P3899) and 0.2 μM of ATP. The analytical software, Prism 4.0 (GraphPad Software Pte Ltd) was used to generate IC50 values from the data.

FLT3 = biological target: T2, FLT3 (Homo sapiens, UniProt P36888); assay: In vitro kinase activity assay (PKLight), FLT3; assay type: biochemical
T2 construct: purchased Invitrogen PV3182
T2 sequence (P36888 27-993): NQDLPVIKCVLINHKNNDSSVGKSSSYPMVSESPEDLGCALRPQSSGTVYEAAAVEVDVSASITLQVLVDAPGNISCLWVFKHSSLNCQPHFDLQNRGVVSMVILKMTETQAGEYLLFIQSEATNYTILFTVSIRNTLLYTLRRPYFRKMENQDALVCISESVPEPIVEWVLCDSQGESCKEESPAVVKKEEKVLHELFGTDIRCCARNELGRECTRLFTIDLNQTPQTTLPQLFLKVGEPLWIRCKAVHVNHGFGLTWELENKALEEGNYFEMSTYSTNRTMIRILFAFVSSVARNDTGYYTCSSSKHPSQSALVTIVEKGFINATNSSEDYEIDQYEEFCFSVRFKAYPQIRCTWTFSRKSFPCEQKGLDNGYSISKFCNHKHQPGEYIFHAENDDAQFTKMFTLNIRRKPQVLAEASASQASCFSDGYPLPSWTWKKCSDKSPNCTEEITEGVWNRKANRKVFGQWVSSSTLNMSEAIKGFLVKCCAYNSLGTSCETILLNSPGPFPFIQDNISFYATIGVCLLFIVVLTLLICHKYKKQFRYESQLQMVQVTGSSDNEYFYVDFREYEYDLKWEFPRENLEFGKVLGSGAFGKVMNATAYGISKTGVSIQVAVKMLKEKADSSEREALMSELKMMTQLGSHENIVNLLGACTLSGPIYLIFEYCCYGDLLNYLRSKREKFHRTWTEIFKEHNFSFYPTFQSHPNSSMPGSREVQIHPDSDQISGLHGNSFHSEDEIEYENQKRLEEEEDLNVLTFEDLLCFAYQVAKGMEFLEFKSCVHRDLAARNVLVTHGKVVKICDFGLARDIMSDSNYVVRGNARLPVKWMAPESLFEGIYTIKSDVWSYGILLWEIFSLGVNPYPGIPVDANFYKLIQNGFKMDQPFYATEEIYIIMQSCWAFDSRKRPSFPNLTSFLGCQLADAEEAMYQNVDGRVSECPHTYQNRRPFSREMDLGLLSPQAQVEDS
Method: as §2, with “All” for “The recombinant enzymes (CDK2/CyclinA, FLT3, JAK2 and JAK2 V617F) were purchased from Invitrogen (Cat #PV3267, 3182, 4210 and 4347 respectively). All”, “For JAK2 V617F mutant assays, the reaction contained 8.0 μg/mL of JAK2 mutant enzyme, 2 μM of poly(Glu,Ala,Tyr) substrate (Sigma, Cat #P3899) and 0.2 μM of ATP.” left out

[2] = system: Colo205 (colon adenocarcinoma cell line); assay: Cell-based proliferation assay for GI50, Colo205; conditions: Homo sapiens, COLO 205; Colo205 cells, 96 h treatment
Method: as §1

JAK2 = biological target: T3, JAK2 (Homo sapiens, UniProt O60674); assay: In vitro kinase activity assay (PKLight), JAK2; assay type: biochemical
T3 construct: purchased Invitrogen PV4210
Method: as §2, with “All” for “The recombinant enzymes (CDK2/CyclinA, FLT3, JAK2 and JAK2 V617F) were purchased from Invitrogen (Cat #PV3267, 3182, 4210 and 4347 respectively). All”, “For JAK2 V617F mutant assays, the reaction contained 8.0 μg/mL of JAK2 mutant enzyme, 2 μM of poly(Glu,Ala,Tyr) substrate (Sigma, Cat #P3899) and 0.2 μM of ATP.” left out

[3] = system: MV4-11 (acute myeloid leukemia cell line); assay: Cell-based proliferation assay for GI50, MV4-11; conditions: Homo sapiens; MV4-11 cells, 96 h treatment
Method: as §1

[4] = system: HEL92.1.7 (erythroleukemia cell line); assay: Cell-based proliferation assay for GI50, HEL92.1.7; conditions: Homo sapiens, HEL 92.1.7; HEL92.1.7 cells, 96 h treatment
Method: as §1

JAK2 V617F = biological target: T4, JAK2 V617F (Homo sapiens, UniProt O60674, V617F); assay: In vitro kinase activity assay (PKLight), JAK2 V617F mutant; assay type: biochemical
T4 construct: purchased Invitrogen PV4347
Method: as §2, with “All” for “The recombinant enzymes (CDK2/CyclinA, FLT3, JAK2 and JAK2 V617F) were purchased from Invitrogen (Cat #PV3267, 3182, 4210 and 4347 respectively). All”, “For JAK2 V617F mutant assays, the reaction contained 8.0 μg/mL of JAK2 mutant enzyme, 2 μM of poly(Glu,Ala,Tyr) substrate (Sigma, Cat #P3899) and 0.2 μM of ATP.” left out

T3 sequence (O60674 whole entry): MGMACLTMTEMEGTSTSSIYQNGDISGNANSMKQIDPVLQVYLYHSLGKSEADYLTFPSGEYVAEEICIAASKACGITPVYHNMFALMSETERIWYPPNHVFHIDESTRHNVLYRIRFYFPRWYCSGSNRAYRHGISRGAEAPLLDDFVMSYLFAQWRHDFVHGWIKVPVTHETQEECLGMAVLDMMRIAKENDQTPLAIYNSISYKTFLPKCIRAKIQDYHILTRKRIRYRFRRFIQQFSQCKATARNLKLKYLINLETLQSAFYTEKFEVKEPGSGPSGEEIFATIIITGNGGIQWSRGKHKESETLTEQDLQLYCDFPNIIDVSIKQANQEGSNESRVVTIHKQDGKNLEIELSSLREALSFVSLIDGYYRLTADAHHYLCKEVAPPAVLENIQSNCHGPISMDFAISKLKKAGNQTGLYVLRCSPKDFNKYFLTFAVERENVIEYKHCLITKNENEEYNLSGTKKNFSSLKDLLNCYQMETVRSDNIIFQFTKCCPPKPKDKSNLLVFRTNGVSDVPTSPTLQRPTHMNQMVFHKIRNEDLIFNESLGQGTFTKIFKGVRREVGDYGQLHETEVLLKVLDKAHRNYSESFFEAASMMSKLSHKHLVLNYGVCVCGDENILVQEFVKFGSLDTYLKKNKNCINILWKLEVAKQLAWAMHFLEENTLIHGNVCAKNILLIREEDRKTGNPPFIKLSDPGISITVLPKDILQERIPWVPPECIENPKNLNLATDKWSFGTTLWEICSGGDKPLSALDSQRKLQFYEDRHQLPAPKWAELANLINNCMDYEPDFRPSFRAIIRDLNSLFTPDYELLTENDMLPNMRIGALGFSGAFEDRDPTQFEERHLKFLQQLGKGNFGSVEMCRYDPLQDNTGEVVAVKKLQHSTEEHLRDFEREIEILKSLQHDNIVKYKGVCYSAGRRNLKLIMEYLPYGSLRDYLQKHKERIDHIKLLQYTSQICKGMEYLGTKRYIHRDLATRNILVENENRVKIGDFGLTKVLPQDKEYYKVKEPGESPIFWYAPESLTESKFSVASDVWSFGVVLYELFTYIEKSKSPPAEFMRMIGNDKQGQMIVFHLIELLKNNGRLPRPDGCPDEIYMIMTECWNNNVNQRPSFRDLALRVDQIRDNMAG
T4 sequence (O60674 whole entry V617F): as the sequence (O60674 whole entry) above, with V617F counted along it

GI50 [1] [nM] | IC50 (CDK2/CyclinA) [nM] | IC50 (FLT3) [nM] | GI50 [2] [nM] | IC50 (JAK2) [nM] | GI50 [3] [nM] | GI50 [4] [nM] | IC50 (JAK2 V617F) [nM] | SMILES
1000 to 5000 | ≤ 1000 | ≤ 1000 | 1000 to 5000 | ≤ 1000 | – | – | – | COc1ccc2cc1COC/C=C/COc1cccc(c1)-c1ccnc(n1)N2 [Compound 6]
≤ 1000 | > 5000 | ≤ 1000 | > 5000 | > 5000 | > 5000 | > 5000 | – | COc1ccc2cc1COC/C=C\COc1cccc(c1)-c1ccnc(n1)N2 [Compound 7]
≤ 1000 | 1000 to 5000 | – | 1000 to 5000 | – | ≤ 1000 | 1000 to 5000 | – | C1=C/COCc2cc(ccc2OCCN2CCCC2)Nc2nccc(n2)-c2cccc(c2)COC/1 [Compound 13]
≤ 1000 | > 5000 | ≤ 1000 | 1000 to 5000 | ≤ 1000 | ≤ 1000 | ≤ 1000 | ≤ 1000 | COc1ccc2cc1COC/C=C/COCc1cc(ccc1OCCN1CCCC1)Nc1nccc-2n1 [Compound 14]
≤ 1000 | 1000 to 5000 | ≤ 1000 | 1000 to 5000 | ≤ 1000 | ≤ 1000 | 1000 to 5000 | ≤ 1000 | CCN(CC)CCOc1ccc2cc1COC/C=C/COCc1cccc(c1)-c1ccnc(n1)N2 [Compound 15]
≤ 1000 | > 5000 | ≤ 1000 | ≤ 1000 | ≤ 1000 | ≤ 1000 | ≤ 1000 | ≤ 1000 | CCN(CC)CCOc1ccc2cc1COC/C=C/CCOc1cccc(c1)-c1ccnc(n1)N2 [Compound 19]
≤ 1000 | > 5000 | ≤ 1000 | – | ≤ 1000 | ≤ 1000 | 1000 to 5000 | ≤ 1000 | CCN(CC)CCOc1ccc2cc1COC/C=C/CCOc1cccc(c1)-c1nc(ncc1C)N2 [Compound 29]
≤ 1000 | 1000 to 5000 | ≤ 1000 | – | ≤ 1000 | ≤ 1000 | 1000 to 5000 | – | COc1cc2cc(c1OCCN1CCCC1)COC/C=C/COCc1cccc(c1)-c1ccnc(n1)N2 [Compound 32]
1000 to 5000 | > 5000 | ≤ 1000 | – | ≤ 1000 | ≤ 1000 | 1000 to 5000 | – | C1=C/COCc2cc(ccc2N2CCOCC2)Nc2nccc(n2)-c2cccc(c2)COC/1 [Compound 33]
≤ 1000 | 1000 to 5000 | ≤ 1000 | – | ≤ 1000 | ≤ 1000 | 1000 to 5000 | – | Fc1cc2cc(c1)-c1ccnc(n1)Nc1ccc(OCCN3CCCC3)c(c1)COC/C=C/CCO2 [Compound 36]
≤ 1000 | > 5000 | ≤ 1000 | – | ≤ 1000 | ≤ 1000 | 1000 to 5000 | – | C1=C2COC/C=C/COCc3cc(ccc3OCCN3CCCC3)Nc3nccc(n3)C(=C1)O2 [Compound 38]
≤ 1000 | > 5000 | ≤ 1000 | – | ≤ 1000 | ≤ 1000 | ≤ 1000 | – | CN1CCN(c2ccc3cc2COC/C=C/COCc2cccc(c2)-c2ccnc(n2)N3)CC1 [Compound 40]
≤ 1000 | 1000 to 5000 | ≤ 1000 | – | ≤ 1000 | ≤ 1000 | 1000 to 5000 | – | Fc1ccc2cc1COC/C=C/COCc1cc(ccc1OCCN1CCCC1)Nc1nccc-2n1 [Compound 46]
≤ 1000 | > 5000 | ≤ 1000 | ≤ 1000 | ≤ 1000 | ≤ 1000 | ≤ 1000 | – | C1=C2COC/C=C/COCc3cc(ccc3OCCN3CCCC3)Nc3nccc(n3)C(=C1)S2 [Compound 48]
≤ 1000 | > 5000 | ≤ 1000 | – | ≤ 1000 | ≤ 1000 | 1000 to 5000 | – | C1=C/COCc2cc(ccc2OCCN2CCCC2)Nc2nccc(n2)-c2coc(c2)COC/1 [Compound 50]
≤ 1000 | > 5000 | ≤ 1000 | – | ≤ 1000 | ≤ 1000 | ≤ 1000 | – | C1=C/COCc2cc(ccc2OCCN2CCCC2)Nc2nccc(n2)-c2csc(c2)COC/1 [Compound 52]
≤ 1000 | 1000 to 5000 | ≤ 1000 | – | ≤ 1000 | ≤ 1000 | 1000 to 5000 | – | c1cc2cc(c1)-c1ccnc(n1)Nc1ccc(OCCN3CCCC3)c(c1)COCC1CC1COC2 (stereo not shown) [Compound 53]
1000 to 5000 | > 5000 | ≤ 1000 | – | ≤ 1000 | ≤ 1000 | 1000 to 5000 | – | C1=C/COCc2cc(ccc2OCCN2CCCC2)Nc2nccc(n2)-c2cc(co2)COC/1 [Compound 55]
≤ 1000 | 1000 to 5000 | ≤ 1000 | – | ≤ 1000 | ≤ 1000 | 1000 to 5000 | – | C1=C/COCc2cc(ccc2OCCN2CCCC2)Nc2nccc(n2)-c2cncc(c2)COC/1 [Compound 56]
